We go through three compounds from paper PMC9785688 (Pharmaceutics, 2022).

The structures appear in SMILES notation. Where two headings read alike, the source gives them in different places.

Series [1] addresses T1, P-glycoprotein (P-gp) function at the blood-brain barrier (BBB) (Rattus norvegicus, UniProt Q6PSM0).
T1 construct: Kinetic modeling was performed to estimate the impact of these drugs on P-gp function at the BBB; from tissue; host or cells: blood-brain barrier (brain) of living Sprague Dawley rats, in vivo PET
The experiment in a line: [^11C]metoclopramide brain PET imaging with kinetic modelling (Logan plot) in rats. It counts as in vivo. The conditions noted are these: oral pretreatment of healthy Sprague Dawley rats (CBZ 45 mg/kg twice a day for 7 days; RIT 20 mg/kg 3 h before PET).
Procedure: In animals of the CBZ group (n = 4), CBZ suspension was administered by oral gavage at a dose of 45 mg/kg, twice a day (8 A.M and 5 P.M) for 7 days before the PET imaging. Each animal received a total of 14 doses of CBZ before the PET experiment.
A RIT suspension (10 mg/mL) was freshly prepared prior to oral administration by adding 100 mg of RIT powder to 9.4 mL of water for injection. Animals of the RIT group (n = 4) received a single dose of 20 mg/kg of RIT 3 hours before the PET experiment.
PET acquisitions were performed in Baseline, CBZ and RIT pretreated animals (n = 4 per condition) using an Inveon microPET scanner (Siemens, Knoxville, TN, USA). Anesthesia was induced and thereafter maintained using 3.5% and 1.5–2.5% isoflurane in O2, respectively.
Images were reconstructed with the Fourier rebinning algorithm and the 3-dimensional ordered-subset expectation-maximization algorithm, including normalization, attenuation, scatter, and random corrections. […] Radioactivity was corrected for ^11C decay and expressed as standardized uptake value (SUV, unitless) after correction for injected dose and animal weight. […]
Kinetic modeling was also performed using PMOD software. […] Each individual IDIF was corrected by a group-specific, average whole-blood/plasma radioactivity ratio which was obtained from the arterial blood samples collected in the separate groups of animals (see above).

Series [2] has as its system P-gp. The conditions noted are these: cited from earlier work.
Details of series [3]: method as in PMID 30630940. The conditions noted are these: humans, at 30 min, microdose; cited from earlier work.
The conditions of series [4]: rodents, at 30 min, microdose; cited from earlier work.

T1 sequence (Q6PSM0 1-1272): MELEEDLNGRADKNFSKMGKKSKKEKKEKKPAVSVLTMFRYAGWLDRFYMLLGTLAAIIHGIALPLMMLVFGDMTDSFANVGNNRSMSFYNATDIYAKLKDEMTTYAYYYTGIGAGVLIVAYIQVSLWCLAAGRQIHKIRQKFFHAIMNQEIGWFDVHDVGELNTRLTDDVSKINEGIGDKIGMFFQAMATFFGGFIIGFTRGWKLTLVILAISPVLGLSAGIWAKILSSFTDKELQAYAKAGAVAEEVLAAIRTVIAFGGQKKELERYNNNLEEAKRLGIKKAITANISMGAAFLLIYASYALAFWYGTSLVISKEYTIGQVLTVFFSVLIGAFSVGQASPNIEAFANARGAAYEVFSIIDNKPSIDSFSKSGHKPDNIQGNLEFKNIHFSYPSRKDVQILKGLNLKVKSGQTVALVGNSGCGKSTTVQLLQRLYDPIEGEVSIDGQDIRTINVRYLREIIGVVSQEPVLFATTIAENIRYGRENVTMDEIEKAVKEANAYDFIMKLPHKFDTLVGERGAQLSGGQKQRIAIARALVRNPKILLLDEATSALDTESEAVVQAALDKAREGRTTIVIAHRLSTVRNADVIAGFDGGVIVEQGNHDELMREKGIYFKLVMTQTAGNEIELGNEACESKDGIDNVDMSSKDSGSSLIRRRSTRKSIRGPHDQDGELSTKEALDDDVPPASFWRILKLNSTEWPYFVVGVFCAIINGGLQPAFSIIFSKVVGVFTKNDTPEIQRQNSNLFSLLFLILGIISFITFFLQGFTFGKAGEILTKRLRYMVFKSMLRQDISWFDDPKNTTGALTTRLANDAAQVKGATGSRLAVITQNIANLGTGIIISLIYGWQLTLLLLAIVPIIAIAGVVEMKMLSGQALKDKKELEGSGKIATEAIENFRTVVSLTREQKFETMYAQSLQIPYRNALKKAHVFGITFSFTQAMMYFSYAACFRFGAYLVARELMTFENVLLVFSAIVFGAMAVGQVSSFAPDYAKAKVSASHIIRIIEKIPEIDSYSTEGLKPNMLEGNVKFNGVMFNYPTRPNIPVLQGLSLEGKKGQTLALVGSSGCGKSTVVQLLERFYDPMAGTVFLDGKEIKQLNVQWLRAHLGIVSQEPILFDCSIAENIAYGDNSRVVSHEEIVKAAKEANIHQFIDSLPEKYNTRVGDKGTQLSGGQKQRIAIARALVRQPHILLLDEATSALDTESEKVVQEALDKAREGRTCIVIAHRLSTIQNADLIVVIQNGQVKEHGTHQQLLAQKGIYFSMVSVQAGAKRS

Turning to `NC(=O)N1c2ccccc2C=Cc2ccccc21` [CBZ, carbamazepine], the “Effect on P-gp function at the BBB (from [^11C]metoclopramide PET)” value in series [1] was “does not substantially induce or inhibit”.
`CC(C)c1nc(CN(C)C(=O)N[C@H](C(=O)N[C@@H](Cc2ccccc2)C[C@H](O)[C@H](Cc2ccccc2)NC(=O)OCc2cncs2)C(C)C)cs1` [RIT, ritonavir]: in series [2], the “P-gp inhibition in vitro” value is “potent P-gp inhibitor”. Besides, the “Effect on P-gp function at the BBB (from [^11C]metoclopramide PET)” value in series [1] is “apparently behaving as an inhibitor”.
Turning to `CCN(CC)CCNC(=O)c1cc(Cl)c(N)cc1O[11CH3]` [[^11C]metoclopramide], the “Fraction of parent [^11C]metoclopramide” value is ~ 60% in series [3] and ~ 10% in series [4].
